From ChEMBL document CHEMBL1201862, “PubChem BioAssay data set” (2004)
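Five compound concentrations were applied to cells in 96-well plates for 48 hours; endpoints were derived by simple linear interpolation of the resulting dose-response curve. The concentration for 50% growth inhibition is given as GI50.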 Active and inactive are the calls of the source. No stated cut-off is given here; in the data, active = GI50 up to about 1.1 µM and inactive = higher.

Experiments:
Test in all cases: NCI anticancer screen, dose series, 48 h
M14 = test system: M14
OVCAR-5 = test system: OVCAR-5
SW-620 = test system: SW-620
A498 = test system: A498
UACC-257 = test system: UACC-257
ACHN = test system: ACHN
RXF 393 = test system: RXF 393
TK-10 = test system: TK-10
LOX IMVI = test system: LOX IMVI
SNB-75 = test system: SNB-75
UO-31 = test system: UO-31
HCT-116 = test system: HCT-116
RPMI-8226 = test system: RPMI-8226
NCI-H226 = test system: NCI-H226
SK-MEL-2 = test system: SK-MEL-2
HCT-15 = test system: HCT-15
786-0 = test system: 786-0

Row | SMILES | GI50 (M14) | GI50 (OVCAR-5) | GI50 (SW-620) | GI50 (A498) | GI50 (UACC-257) | GI50 (ACHN) | GI50 (RXF 393) | GI50 (TK-10) | GI50 (LOX IMVI) | GI50 (SNB-75) | GI50 (UO-31) | GI50 (HCT-116) | GI50 (RPMI-8226) | GI50 (NCI-H226) | GI50 (SK-MEL-2) | GI50 (HCT-15) [µM] | GI50 (786-0)
1 | COc1nc(NC2OCC(OC(C)=O)C(OC(C)=O)C2OC(C)=O)c(/N=C(\C)C(C)=O)c(=O)n1C (centres undefined) | > 100 µM (inactive) | > 100 µM (inactive) | > 100 µM (inactive) | > 100 µM (inactive) | > 100 µM (inactive) | > 100 µM (inactive) | > 100 µM (inactive) | > 100 µM (inactive) | > 100 µM (inactive) | > 100 µM (inactive) | > 100 µM (inactive) | > 100 µM (inactive) | > 100 µM (inactive) | 0.63 µM (active) | > 100 µM (inactive) | > 100 | 
2 | CN1C(=O)CC2(C)c3cc(C=O)ccc3N(C)C12 (centres undefined) | > 100 µM (inactive) | > 100 µM (inactive) | > 100 µM (inactive) | > 100 µM (inactive) | > 100 µM (inactive) | > 100 µM (inactive) | > 100 µM (inactive) | > 100 µM (inactive) | > 100 µM (inactive) | 69.5 µM (inactive) | > 100 µM (inactive) | > 100 µM (inactive) |  | > 100 µM (inactive) | > 100 µM (inactive) | > 100 | > 100 µM (inactive)
3 | CCCCc1c2c(nc3c1CCCC3O)/C(=C/c1ccccc1)CCC2 (centres undefined) | 23.1 µM (inactive) | 32.8 µM (inactive) | 26.2 µM (inactive) | 54.1 µM (inactive) | 30 µM (inactive) | 34.8 µM (inactive) | 39.9 µM (inactive) | 26.9 µM (inactive) | 19.7 µM (inactive) | 35.3 µM (inactive) | 42.9 µM (inactive) | 36.6 µM (inactive) | 16.8 µM (inactive) | 26.1 µM (inactive) | 24.8 µM (inactive) | 16 | 22.3 µM (inactive)
4 | COP(=O)(OC)C(=O)N1N(c2ccc([N+](=O)[O-])cc2)C(=O)C(C)NC1(NNc1ccc([N+](=O)[O-])cc1)P(=O)(OC)OC (centres undefined) | > 100 µM (inactive) | > 100 µM (inactive) | > 100 µM (inactive) | > 100 µM (inactive) | > 100 µM (inactive) | > 100 µM (inactive) |  | > 100 µM (inactive) | > 100 µM (inactive) | > 100 µM (inactive) | > 100 µM (inactive) | > 100 µM (inactive) | > 100 µM (inactive) | > 100 µM (inactive) | > 100 µM (inactive) | > 100 | > 100 µM (inactive)
5 | COC(=O)C1CCC(N2C(=O)CCC2C(=O)OC)=N1 (centres undefined) | > 100 µM (inactive) | > 100 µM (inactive) | > 100 µM (inactive) | > 100 µM (inactive) | > 100 µM (inactive) | > 100 µM (inactive) |  | > 100 µM (inactive) | > 100 µM (inactive) | > 100 µM (inactive) | > 100 µM (inactive) | > 100 µM (inactive) | > 100 µM (inactive) | > 100 µM (inactive) | > 100 µM (inactive) | > 100 | > 100 µM (inactive)
6 | COC(=O)C(=O)C(C(=O)C(=O)Nc1ccc(Cl)cc1C)c1nc2ccc(C(=O)c3ccccc3)cc2nc1O (centres undefined) | > 100 µM (inactive) | 83 µM (inactive) | > 100 µM (inactive) | 21.6 µM (inactive) | 97.9 µM (inactive) | 76.9 µM (inactive) | 52.2 µM (inactive) | > 100 µM (inactive) | > 100 µM (inactive) | 31.5 µM (inactive) | 49.1 µM (inactive) | > 100 µM (inactive) | > 100 µM (inactive) | 33.5 µM (inactive) | > 100 µM (inactive) | > 100 | > 100 µM (inactive)
7 | CCOC(=O)NC(=O)c1cn(CCCCCOC(=O)NCCCCCCNC(=O)OCCCCCn2cc(C(=O)NC(=O)OCC)c(=O)[nH]c2=O)c(=O)[nH]c1=O | 31 µM (inactive) |  | > 100 µM (inactive) | > 100 µM (inactive) | > 100 µM (inactive) | > 100 µM (inactive) | > 100 µM (inactive) |  | > 100 µM (inactive) | > 100 µM (inactive) | > 100 µM (inactive) | > 100 µM (inactive) | > 100 µM (inactive) | > 100 µM (inactive) | > 100 µM (inactive) | > 100 | > 100 µM (inactive)
8 | O=C(O)C1=C(C(=O)O)Oc2ccccc2O1 | > 100 µM (inactive) | > 100 µM (inactive) | > 100 µM (inactive) | > 100 µM (inactive) | > 100 µM (inactive) | > 100 µM (inactive) | > 100 µM (inactive) | > 100 µM (inactive) | > 100 µM (inactive) | > 100 µM (inactive) | > 100 µM (inactive) | > 100 µM (inactive) |  | > 100 µM (inactive) | > 100 µM (inactive) | > 100 | > 100 µM (inactive)
